Data reported in patent US8232407B2, “Nitrogenous heterocyclic compounds with insecticidal activity, and the preparation and use thereof” (East China University of Science and Technology, priority 2008, dated 2012).
Read-outs that look alike come from different tables or passages of the source.

Key:
Assay type in all cases: in vivo
[1] = system: Aphis craccivoral; assay: Insecticidal activities to aphids, immersion method; conditions: for Aphis craccivoral Mortality (%) 500 ppm: in vivo; for mortality at 500 ppm: Aphis, read-out: Aphis craccivoral Mortality (%) 500 ppm
Summary of the method: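 Immersion assay: compound diluted from 10 g/L DMF stock to 500 ppm in 0.2 mL/L Triton X-100, sprout-feeding wingless adults dipped 5 s. Kept at 23° C, three repeats; 24 h mortality calculated relative to surviving Triton-treated controls.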

[2] = system: Nilaparvata lugens; assay: Insecticidal activities to plant hopper, spraying method; conditions: for Nilaparvata lugens Mortality (%) 500 ppm: in vivo; for mortality at 500 ppm: Nilaparvata lugens, read-out: Nilaparvata lugens Mortality (%) 500 ppm
Summary of the method: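 Spray test: acetone solutions of 500 down to 0.79 ppm, 2 ml per tumbler holding 10 planthoppers introduced 6 h earlier, triplicate, aqueous acetone as control. Mortality at 24 h calculated from survivors relative to control.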

[3] = system: Pseudaletia separate Walker; assay: Insecticidal activities to armyworm, leaf dipping and feeding
Summary of the method: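 Armyworms (10 per tumbler, 3 replicates) ate fresh maize leaves that had been immersed for 3 seconds in compound solutions of 1.57-500 ppm in acetone, or in aqueous acetone for controls. Kills were scored at 24 h, and mortality was calculated relative to survivors in the control group.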

[4] = system: Plutella xylostella; assay: Insecticidal activities to diamondback moth, feeding dipped leaves; conditions: for Plutella xylostella Mortality (%) 500 ppm: in vivo; for mortality at 500 ppm: Plutella xylostella, read-out: Plutella xylostella Mortality (%) 500 ppm
Summary of the method: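 Mortality was scored 24 h after larvae of Plutella xylostella (10 per treatment, 3 repeats) fed on cabbage leaves immersed 3 s in test solution and dried at room temperature. It was computed relative to survivors in a water-treated control.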

| SMILES | Aphis craccivoral Mortality (%) 500 ppm [1] | Nilaparvata lugens Mortality (%) 500 ppm [2] | Pseudaletia separate Walker Mortality (%) 500 ppm ([3]; in vivo) | Plutella xylostella Mortality (%) 500 ppm [4] | also measured |
| --- | --- | --- | --- | --- | --- |
| N#CC(=Cc1ccoc1)C1=NCCN1Cc1ccc(Cl)nc1 [Compound 141] | 100% | 100% | 100% | 100% | – |
| CC(=C(C1=NCCN1C(C)c1ccc(Cl)nc1)[N+](=O)[O-])c1ccsc1 (racemic) [Compound 139] | 93% | 100% | 95% | 100% | – |
| C[N+]1=C(C(=Cc2cc(Br)cs2)[N+](=O)[O-])N(Cc2ccc(Cl)nc2)CC1.[Cl-] [Compound 265] | 100% | 100% | 100% | 100% | – |
| CC(=C(C1=NCCN1Cc1ccc(Cl)nc1)[N+](=O)[O-])c1ccco1 [Compound 111] | 45% | 53% | 77% | 25% | – |
| O=[N+]([O-])C(=Cc1ccc([N+](=O)[O-])s1)C1=NCCCN1Cc1ccc(Cl)nc1 [Compound 63] | 98% | 100% | 100% | 100% | – |
| O=[N+]([O-])C(=Cc1cnco1)C1=NCCN1Cc1ccc(Cl)nc1 [Compound 33] | 100% | 100% | 100% | 100% | – |
| Cc1csc(C=C(C2=[N+](C)CCN2Cc2ccc(Cl)nc2)[N+](=O)[O-])c1.[Cl-] [Compound 271] | 100% | 100% | 100% | 100% | – |
| O=[N+]([O-])C(=Cc1ccccn1)C1=NCCN1Cc1ccc(Cl)nc1 [Compound 37] | 34% | 56% | 57% | 50% | – |
| Cc1ccc(C=C(C2=NCCN2Cc2cnc(Cl)s2)[N+](=O)[O-])o1 [Compound 79] | 100% | 100% | 100% | 100% | – |
| CC(=C(C1=NCCN1Cc1ccc(Cl)nc1)[N+](=O)[O-])c1ccc(Cl)s1 [Compound 118] | 93% | 90% | 19% | 23% | – |
| O=[N+]([O-])/C(=C/c1cccs1)C1=NCCN1Cc1ccc(Cl)nc1 [Compound 16, 2-chloro-5-((2-(1-nitro-2-(thiophen-2-yl)vinyl)-4,5-dihydro-imidazol-1-yl)-methyl)pyridine] | – | – | – | – | mortality at 500 ppm ([1]; 500 ppm, immersion method): 100%; mortality at 500 ppm ([2]; 500 ppm, spraying method, counted after 24 hours): 100%; Pseudaletia separate Walker Mortality (%) 500 ppm ([3]; 500 ppm, leaf dipping and feeding, counted after 24 hours): 100%; mortality at 500 ppm ([4]; 500 ppm, feeding dipped leaves, counted after 24 hours): 100% |
| N#CC(=Cc1ccsc1)C1=NCCN1Cc1ccc(Cl)nc1 [Compound 147] | 100% | 100% | 100% | 100% | – |
| CCN(Cc1ccc(Cl)nc1)C(=N\C)/C(=C\c1ccco1)[N+](=O)[O-] [Compound 151, N-((6-chloropyridin-3-yl)methyl)-N-ethyl-3-(furan-2-yl)-N′-methyl-2-nitro acrylamidine] | – | – | – | – | mortality at 500 ppm ([1]; 24 h): 76%; mortality at 500 ppm ([2]; 24 h): 87%; mortality at 500 ppm ([3]; Zea mays, foliar, 24 h, read-out: Pseudaletia separate Walker Mortality (%) 500 ppm): 86%; mortality at 500 ppm ([4]; in Brassica oleracea, 24 h): 79% |
| C[N+]1=C(C(=Cc2oc(Br)cc2Br)[N+](=O)[O-])N(Cc2ccc(Cl)nc2)CC1.[Cl-] [Compound 254] | 100% | 100% | 100% | 100% | – |
